According to US7641914B2, “Acid-sensitive compounds, their preparation and uses” (Gencell, S.A., priority 2000, dated 2010):

Tests used:
[1] = system: HeLa cells; assay: In vitro transfection of HeLa cells, luciferase activity; assay type: cell-based, human; conditions: charge ratios 1.0 to 10.0 nmol lipid/μg DNA
Procedure: This study was carried out at 4 different charge ratios: 1.0 or 4.0 or 6.0 or 10.0 nmol of lipid/μg of DNA. Each of these conditions was tested with and without fetal calf serum (A+ or − Serum a))
Culture of the cells: HeLa cells (American Type Culture Collection (ATCC) Manassas, Va., USA) derived from a human cervical epithelium carcinoma, were cultured in the presence of a medium of the MEM (“minimum essential medium”) type with addition of 2 mM L-glutamine, 50 units/ml of penicillin, and 50 units/ml of streptomycin. The medium and the additives were obtained from Gibco/BRL Life Technologies/InvitroGen (Gaithersburg, Md., USA). The cells were cultured in flasks at 37° C. and at 5% carbon dioxide in an incubator. […]
An aliquot of 10 μl of supernatant of the lysate centrifuged (12,000×g) for 5 minutes at 4° C. was measured with the Wallac Victor2 luminometer (1420 Multilabel counter).
The luciferase activity was assayed by the emission of light in the presence of luciferin, of coenzyme A and of ATP for 10 seconds and expressed relative to 2000 treated cells. The luciferase activity was thus expressed as Relative Light Unit (“RLU”) and normalized with the concentration of proteins in the sample obtained using a Pierce BCA kit (Rockford, Ill., USA).

[2] = system: DNA; assay: Ethidium bromide fluorescence test of DNA compaction and release in acidic medium; assay type: physicochemical; conditions: for variation in fluorescence over time (EtBr) / release of DNA over time (increase in EtBr fluorescence): pH 5, 37° C.; for variation in fluorescence over time (EtBr): 0.4 nmol lipid/pg of DNA, DNA not completely compacted; for release of DNA over time (increase in EtBr fluorescence): 1.7 and 6.0 nmol lipid/μg of DNA, complete compaction
Procedure: This was easily shown by a fluorescence test with ethidium bromide (EtBr): the absence of fluorescence reflects the absence of free DNA, that means that the DNA was compacted.
The DNA was brought into contact with increasing quantities of control cationic lipid or of acid-sensitive compound A Syn or Trans, by mixing an equal volume of lipid solutions of different titers with the DNA solutions. Samples of 800 μl of DNA complexes having a concentration of […] were thus prepared in a sodium chloride solution at 150 mM with increasing quantities of control cationic lipid or of acid-sensitive compound A Syn or Trans.
At time t=0, 200 μl of buffer having a concentration of 0.1 mol/l at pH 5 were added to these samples and the samples were stored in an oven at 37° C. The fluorescence with ethidium bromide (EtBr) was measured over time (measurement at 20° C.) using a FluoroMax-2 (Jobin Yvon-Spex), with excitation and emission wavelengths of 260 nm and 590 nm respectively. The slit widths for excitation and for emission were set at 5 nm. The fluorescence value was recorded after addition of 3 μl of ethidium bromide at 1 g/l per ml of DNA/cationic lipid or DNA/acid-sensitive compound solution (at 0.01 mg of DNA/ml).

Compound | transfection activity [1] | variation in fluorescence over time (EtBr) [2] | release of DNA over time (increase in EtBr fluorescence) [2] | time of release of DNA after the addition of acid ([2]; pH 5 and 37° C.)
CCCCCCCCCCCCCCCCCCN(CCCCCCCCCCCCCCCCCC)C(=O)CNC(=O)CNCCCNCCCCNCCCN [control cationic lipid, H2N—(CH2)3—NH—(CH2)4—NH—(CH2)3—NH—CH2—CO-Gly-N[(CH2)17—CH3]2, reference compound] | high transfection activity | no significant variation in fluorescence | not the case | –
CCCCCCCCCCCCCCCCCCN(CCCCCCCCCCCCCCCCCC)C(=O)CCCOC1OCC(CNC(=O)CNCCCNCCCCNCCCN)O1 (stereo not drawn) [Compound A Syn, 4-{4-[(2-{3-[4-(3-amino-propylamino)butylamino]propyl-amino}acetylamino)methyl]-[1,3]dioxolan-2-yloxy}-N,N-dioctadecylbutyramide tetraacetate] | high transfection activity | no significant variation in fluorescence | released the DNA over time | a few hours
